Patent US20230382871A1, “CSF1R KINASE INHIBITOR AND USE THEREOF” (SHANGHAI INSTITUTE OF MATERIA MEDICA, CHINESE ACADEMY OF …, priority 2020, published 2023)

System: phosphorylated CSF1R (p-CSF1R) in BMDM
Experiment: Western blot of CSF1-stimulated CSF1R phosphorylation in BMDM
Type: cell-based, mouse
Description: Bone marrow-derived macrophages, after induction by CSF1 for 5 to 7 days, were centrifuged to remove the previous medium. 2 mL of a serum-free medium was added. […] CSF1 factor was added at a final concentration of 50 ng/mL for stimulation for 15 minutes. The culture medium was discarded, and cells were washed three times with pre-cooled PBS. Then, the cells were lysed by adding 1×SDS gel loading buffer. The cell lysates were heated in a boiling water bath for 15 min, and then stored at −20° C.
A protein sample as described above was subjected to SDS-PAGE electrophoresis. Then, the protein was transferred to a nitrocellulose membrane using a semi-dry electrotransfer system. The nitrocellulose membrane was placed in a blocking solution (5% skim milk in TBS-T) and incubated for 2 h at room temperature. Then, the membrane was allowed to react with a primary antibody overnight at 4° C. After the membrane was washed with TBS-T for three times with 15 min each time, the membrane was allowed to react in a secondary antibody dilution at room temperature for 1-2 h. […]
The inhibitory effect of Compound I on CSF1R and its signaling pathway in mouse primary macrophages was detected by immunoblotting assays. Each experiment was independently repeated three times and all experimental results were quantified. […]

Compound: Cc1cc(NC(=O)c2cccc3cc(-c4cccc5[nH]nc(N)c45)ccc23)ccc1F [Compound I]
- inhibition at 0.1 µM (Mus musculus, 100 nM, 2 h, CSF1 50 ng/mL 15 min): 57.3%
- CSF1 stimulated phosphorylation levels of CSF1R and AKT (immunoblotting): inhibited in a dose-dependent manner
